One data set deals with SARS-CoV-2. Set-up: method as in PMID 37245876. The conditions noted are these: Vero E6 monolayers, noncytotoxic concentrations; cited from earlier work.
A further data set concerns the target SARS-CoV-2 M^pro (Severe acute respiratory syndrome coronavirus 2, UniProt P0DTD1). As to the kind of experiment: FRET enzymatic inhibition assay on M^pro. Type of data set: biochemical.
A further data set relates to NO. As to the kind of experiment: NO level in LPS-induced RAW 264.7 cells. In kind it is cell-based. The settings on record: RAW 264.7, LPS 1 μg/mL, 24 h, vs model group, dose-dependent. The text has this:
(§1) NO is an essential pro-inflammatory factor, which can be not only highly expressed in cells but also promoted the expression of other inflammatory cytokines. TNF-α, IL-6, and IL-1β were considered as the main inflammatory cytokines, which were screened as the key targets in network pharmacology. So, the cytokines, including NO, TNF-α, IL-6, and IL-1β, were selected as indicators to evaluate the anti-inflammatory effects. After cultured in a 96-well plate overnight for 1 × 10^5 cells/well, RAW 264.7 cells were simultaneously treated with the tested compounds (concentration from 5 μM to 100 μM) and lipopolysaccharide (LPS) (concentration with 1 μg/mL) for 24 h. Then, the supernatant was collected to measure the cytokines levels with the corresponding assay kits, respectively.

The next data set relates to RdRp. Set-up: method as in PMID 33614402. The settings on record: cell-free and cell-based assays; cited from earlier work.
A further data set relates to IL-6. As to the kind of experiment: IL-6 level (ELISA) in LPS-induced RAW 264.7 cells. Type of data set: cell-based. The conditions noted are these: RAW 264.7, LPS 1 μg/mL, 24 h, vs model group.
Description: as §1
In general terms: An ELISA detects its analyte on a solid surface through an enzyme-linked reagent.

For another data set, the system named is IL-1β. Put plainly: IL-1β level (ELISA) in LPS-induced RAW 264.7 cells. In kind it is cell-based. The conditions noted are these: RAW 264.7, LPS 1 μg/mL, 24 h, vs model group.
Description: as §1

In data set [1] the target is T1, SARS-CoV-2 spike protein (S^pro) (Severe acute respiratory syndrome coronavirus 2, UniProt P0DTC2).
T1 construct: purchased Sino Biological Inc. (Beijing, China)
As to the kind of experiment: SPR assay (Biacore T200), immobilized S^pro. Type of data set: binding. The conditions noted are these: CM5 chip, 25 °C, pH 7.4, 5% DMSO, read-out: equilibrium dissociation constant (KD), S^pro. For orientation: In SPR one partner is held on a chip, and binding of the other changes the refractive index at the surface.

Data set [2] deals with SARS-CoV-2 papain-like protease (PL^pro) (Severe acute respiratory syndrome coronavirus 2, UniProt P0DTD1). Put plainly: SPR assay (Biacore T200), immobilized PL^pro. Type of data set: binding.
Another data set is described as follows: in vitro. The conditions noted are these: African green monkey.
The test system of a further data set is TNF-α. Put plainly: TNF-α level (ELISA) in LPS-induced RAW 264.7 cells. Type of data set: cell-based. The conditions noted are these: RAW 264.7, LPS 1 μg/mL, 24 h, vs model group.
Description: as §1

Another data set concerns the target SARS-CoV-2 PL^pro (Severe acute respiratory syndrome coronavirus 2, UniProt P0DTD1). Put plainly: FRET enzymatic inhibition assay on PL^pro. The settings on record: for inhibition on PL^pro at 40 μM: 40 μM compound. In kind it is biochemical.
The next data set has as its system SARS-CoV-2 Omicron BA.5. As to the kind of experiment: cytopathic effects (CPE) inhibition assay in Vero E6 cells. In kind it is cell-based. A general note: Cytopathic effects are the visible damage that an infection or toxin causes in cultured cells.
A short description of data set [3]: MTT cell viability assay in RAW 264.7 cells. Type of data set: cell-based. The conditions noted are these: mouse. On the procedure:
(§2) RAW 264.7 cells were cultured in DMEM with 10% fetal bovine serum, 100 μg/mL streptomycin, and 100 U/mL penicillin at 37 °C and supplemented with 5% CO2 and 95% air. After seeded and cultured in a 96-well plate (2 × 10^5 cells/well, 100 μL medium/well) for overnight, RAW 264.7 were treated with the tested compounds for 24 h, respectively. Then, 50 μL MTT (2.5 mg/mL) was added into each well and incubated at 37 °C for 4 h. Finally, the absorbance was recorded at 490 nm by a microplate reader to assess the cell viability.

Another data set deals with RAW 264.7 cells. Put plainly: MTT cell viability assay in RAW 264.7 cells. Type of data set: cell-based. On the procedure:
as §2

Data set [4] concerns the target SARS-CoV-2 main protease (M^pro) (Severe acute respiratory syndrome coronavirus 2, UniProt P0DTD1). As to the kind of experiment: SPR assay (Biacore T200), immobilized M^pro. Type of data set: binding. The conditions noted are these: CM5 chip, 25 °C, pH 7.4, 5% DMSO.
The conditions of data set [5]: rat, in vivo, po; cited from earlier work.
The target in another data set is S^pro RBD. Set-up: method as in PMID 34403732. The settings on record: cited from earlier work.
Where [6] appears, read: MTT, 24 h, tested up to 100 μΜ, read-out: CC50 in RAW264.7 cells.

The structures appear in SMILES notation. Like-named read-outs stand apart in the source and are kept apart here.

Consider `O=C1O[C@H]2[C@@H]3OC(=O)c4cc(O)c(O)c(O)c4-c4c(O)c(O)c5oc(=O)c6c(c(O)c(O)c7oc(=O)c4c5c76)-c4c(cc(O)c(O)c4O)C(=O)OC[C@H]3OC(O)[C@@H]2OC(=O)c2cc(O)c(O)c(O)c2-c2c1cc(O)c(O)c2O` (mixture of isomers) [punicalagin], for which the virus-induced plaque formation result in the data set on SARS-CoV-2 is given as “reduce”.

Consider `O=C(O[C@@H]1O[C@@H]2COC(=O)c3cc(O)c(O)c(O)c3-c3c(cc(O)c(O)c3O)C(=O)O[C@H]([C@H]1O)[C@@H]2O)c1cc(O)c(O)c(O)c1` [COR, corilagin], for which the IC50 is 0.73 ± 0.05 µM against SARS-CoV-2 M^pro and more than 100 µM on SARS-CoV-2 PL^pro. Also, the “production of NO” value in the data set with NO is on record as “inhibited”. Moreover, in the data set on RdRp, the RdRp polymerase activity result was “robustly inhibiting”. The “level of IL-6” value in the data set on IL-6 is reported as “significantly reduce”. Besides, in the data set with IL-1β, the “level of IL-1β” value is on record as “significantly reduce”. For the same molecule, the equilibrium dissociation constant (Kd) in [1] was 0.192 µM; in data set [2], 6.24 µM. This molecule displayed a CC50 at 48 h in the data set “in vitro” of more than 100 µM. Further, in the data set on TNF-α, the “level of TNF-α” value is “decrease”. Further, the “inhibition on PL^pro at 40 μM” value against SARS-CoV-2 PL^pro (FRET) was “poor inhibition”. The same molecule registered an EC50 with SARS-CoV-2 Omicron BA.5 (Severe acute respiratory syndrome coronavirus 2, Vero C1008, 48 h) of 12.8 µM. This molecule also showed a CC50 at 24 h in data set [3] of more than 100 µM.

Take `O=C(O)c1cc(O)c(O)c(O)c1` [GAL, gallic acid]: the “production of NO” value with NO is listed as “inhibited”. Moreover, the “level of IL-6” value with IL-6 is “significantly reduce”. Also, the “level of IL-1β” value with IL-1β is listed as “significantly reduce”. Moreover, the “level of TNF-α” value with TNF-α is listed as “decrease”. The CC50 at 24 h in data set [3] (setting [6]) was more than 100 µM.

Take `C[C@H](CCC(=O)NCC(=O)O)[C@H]1CC[C@H]2[C@@H]3[C@H](O)C[C@@H]4C[C@H](O)CC[C@]4(C)[C@H]3C[C@H](O)[C@]12C` [GLYCH, glycocholic acid]: the “production of NO” value with NO was “inhibited”. In addition, the “level of IL-6” value with IL-6 is reported as “significantly reduce”. For the same molecule, the “level of IL-1β” value in the data set with IL-1β is “significantly reduce”. In addition, the “level of TNF-α” value in the data set with TNF-α is listed as “decrease”. Moreover, in the data set on RAW 264.7 cells (MTT, above 40 μΜ, p < 0.05), the “cell viability of RAW264.7 cells” value was “significantly decreased”.

In the case of `O=C(OC[C@H]1OC(O)[C@@](O)(COC(=O)c2cc(O)c(O)c(O)c2)[C@@H]1O)c1cc(O)c(O)c(O)c1` (stereo partly shown) [HAM, hamamelitannin], the “production of NO” value in the data set with NO is “inhibited”. In addition, the “level of IL-6” value in the data set on IL-6 was “significantly reduce”. In addition, the “level of IL-1β” value in the data set on IL-1β is given as “significantly reduce”. Also, in data set [1], the Kd was 0.0933 µM. For the same molecule, the “equilibrium dissociation constant (KD), M^pro” value in data set [4] is reported as “negligible affinity”. For the same molecule, in data set [2] (SPR, CM5 chip, 25 °C, pH 7.4, 5% DMSO), the “equilibrium dissociation constant (KD), PL^pro” value is “negligible affinity”. Further, the “cell viability of RAW264.7 cells” value with RAW 264.7 cells is reported as “significantly decreased”.

For `O=C(/C=C/c1ccc(O[C@@H]2O[C@H](CO)[C@@H](O)[C@H](O)[C@H]2O)cc1)c1ccc(O)cc1O` [ISO, isoliquiritin], in the data set on NO, the “production of NO” value is “inhibited”. Further, in the data set on IL-6, the “level of IL-6” value was “significantly reduce”. Moreover, the “level of IL-1β” value in the data set with IL-1β is listed as “significantly reduce”. The “level of TNF-α” value in the data set with TNF-α was “decrease”. Further, the CC50 at 24 h in data set [3] (setting [6]) was more than 100 µM.

Take `C[C@@H]1O[C@@H](O[C@H]2[C@H](Oc3cc(O)c4c(=O)cc(-c5ccc(O)cc5)oc4c3)O[C@H](CO)[C@@H](O)[C@@H]2O)[C@H](O)[C@H](O)[C@H]1O` [RHO, rhoifolin]: the half-maximal inhibitory concentration (IC50) was 21.6 ± 8.78 µM on SARS-CoV-2 M^pro (FRET, 0.2 μM protein, 20 μM substrate, read-out: IC50 on M^pro) and more than 100 µM at SARS-CoV-2 PL^pro (FRET, 1 μM protein, 10 μM substrate, read-out: IC50 on PL^pro). The “production of NO” value in the data set on NO is “inhibited”. Also, the “level of IL-6” value with IL-6 is “significantly reduce”. The “level of IL-1β” value in the data set with IL-1β is “significantly reduce”. For the same molecule, the Kd in [1] amounted to 7.07 µM; in data set [2] (SPR, CM5 chip, 25 °C, pH 7.4, 5% DMSO, read-out: equilibrium dissociation constant (KD), PL^pro), 7.72 µM. In the data set on TNF-α, the “level of TNF-α” value is reported as “decrease”. The “inhibition on PL^pro at 40 μM” value against SARS-CoV-2 PL^pro (FRET) is on record as “poor inhibition”. Besides, the CC50 at 24 h in data set [3] is more than 100 µM.

`Cn1cnc(Cn2c(=O)[nH]/c(=N\c3cc4cn(C)nc4cc3Cl)n(Cc3cc(F)c(F)cc3F)c2=O)n1` [S-217622, reference compound] had an EC50 in the data set with SARS-CoV-2 Omicron BA.5 of 0.088 µM.

Take `CC1(C)C2CCC1(C)C(O)C2` (stereo not shown) [borneol]: the Tmax in data set [5] was 20 to 25 min.

For `O=C(O)C[C@@H]1C(=O)O[C@H]2[C@@H]3OC(=O)c4cc(O)c(O)c(O)c4-c4c(cc(O)c(O)c4O)C(=O)OC[C@H]2O[C@@H](OC(=O)c2cc(O)c(O)c(O)c2)[C@@H]3OC(=O)c2cc(O)c(O)c3c2[C@H]1[C@H](O)C(=O)O3` [chebulagic acid], the virus-induced plaque formation result in the data set with SARS-CoV-2 is given as “reduce”.

As for `O=C(O[C@@H]1Cc2c(O)cc(O)cc2O[C@@H]1c1cc(O)c(O)c(O)c1)c1cc(O)c(O)c(O)c1` [epigallocatechin gallate], on S^pro RBD, the Kd was 11.5 µM.

Turning to `CC(C)=CCc1c(O)ccc(C(=O)/C=C/c2ccc(O)cc2)c1O` [isobavachalcone], the Kd at S^pro RBD is 5.7 µM.

As to `O=C(/C=C/c1ccc(O)c(O)c1)O[C@@H]1C[C@](O)(C(=O)O)C[C@@H](OC(=O)/C=C/c2ccc(O)c(O)c2)[C@H]1O` [isochlorogenic acid A], the Kd on S^pro RBD is 18.3 µM.

As usually defined, the IC50 is the midpoint of a concentration-inhibition curve. As usually defined, the Kd is the concentration at which binding is half-saturated. The EC50 is the concentration giving half of the maximal effect. One may read the Tmax as the time at which the peak concentration occurs.

The values are drawn from paper PMC12640959, “Elucidation of anti-SARS-CoV-2 and anti-inflammatory bioactives in Qingyan Dropping Pills via integrated in silico screening and bioactivity validation” (Frontiers in Medicine, 2025).
